Laboratory results from the supplement of paper PMC10307832.

What was measured:
Assay in all cases: relative viability (nuclei count vs DMSO), 5 days (fraction); higher = more cells survive
Ricolinostat + Dasatinib = compound: O=C(CCCCCCNC(=O)c1cnc(N(c2ccccc2)c2ccccc2)nc1)NO [Ricolinostat] + Cc1nc(Nc2ncc(C(=O)Nc3c(C)cccc3Cl)s2)cc(N2CCN(CCO)CC2)n1 [Dasatinib] (partner 0.075 µM)
Method in brief: (§1)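 Lung cancer cell lines in 1536-well plates were dosed by pin tool the day after seeding, either with one drug alone or with a fixed anchor-drug dose plus five library-drug doses (not always all listed) in √10 steps. After 5 days, cells were fixed and their nuclei stained in one step (final 0.05% Triton X-100, 1% formaldehyde, 1 ug/ml Hoechst), then counted on 4× images. Relative viability is the nuclei count in treated wells divided by that in vehicle wells. Values are medians of duplicate plates.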

TGX 221 + Bortezomib = compound: CC1=CN2C(=O)C=C(N=C2C(=C1)C(C)NC3=CC=CC=C3)N4CCOCC4 [TGX 221] + CC(C)C[C@H](NC(=O)[C@H](Cc1ccccc1)NC(=O)c1cnccn1)B(O)O [Bortezomib] (partner 0.002 µM)
Method in brief: as §1

TGX 221 + Palbociclib = compound: CC1=CN2C(=O)C=C(N=C2C(=C1)C(C)NC3=CC=CC=C3)N4CCOCC4 [TGX 221] + CC(=O)c1c(C)c2cnc(Nc3ccc(N4CCNCC4)cn3)nc2n(C2CCCC2)c1=O [Palbociclib] (partner 0.5 µM)
Method in brief: as §1

TGX 221 + OSI-027 = compound: CC1=CN2C(=O)C=C(N=C2C(=C1)C(C)NC3=CC=CC=C3)N4CCOCC4 [TGX 221] + COc1cccc2cc(-c3nc([C@H]4CC[C@H](C(=O)O)CC4)n4ncnc(N)c34)[nH]c12 [OSI-027] (partner 0.5 µM)
Method in brief: as §1

Work on NCI-H1792 yielded a relative viability (Ricolinostat + Dasatinib; first compound 0.253 µM) of 0.829, a relative viability (Ricolinostat + Dasatinib; first compound 0.8 µM) of 0.718 and a relative viability (Ricolinostat + Dasatinib; first compound 2.53 µM) of 0.882. The relative viability (TGX 221 + Bortezomib; first compound 0.08 µM) was 0.89, the relative viability (TGX 221 + Bortezomib; first compound 0.253 µM) was 0.922 and the relative viability (TGX 221 + Bortezomib; first compound 0.8 µM) was 0.944. For the same cell line, the relative viability (TGX 221 + Bortezomib; first compound 2.53 µM) was 0.904, the relative viability (TGX 221 + Bortezomib; first compound 8 µM) was 0.838 and the relative viability (TGX 221 + Palbociclib; first compound 0.08 µM) was 0.593. For the same cell line, the relative viability (TGX 221 + Palbociclib; first compound 0.253 µM) was 0.625, the relative viability (TGX 221 + Palbociclib; first compound 0.8 µM) was 0.654 and the relative viability (TGX 221 + Palbociclib; first compound 2.53 µM) was 0.57. The relative viability (TGX 221 + Palbociclib; first compound 8 µM) was 0.582, the relative viability (TGX 221 + OSI-027; first compound 0.08 µM) was 0.768 and the relative viability (TGX 221 + OSI-027; first compound 0.253 µM) was 0.601. For the same cell line, the relative viability (TGX 221 + OSI-027; first compound 0.8 µM) was 0.71, the relative viability (TGX 221 + OSI-027; first compound 2.53 µM) was 0.517 and the relative viability (TGX 221 + OSI-027; first compound 8 µM) was 0.564.
